Holding throughout (assay): Enzyme inhibiting activity of MMPs, fluorogenic peptide substrate
What all share (type): biochemical

The target in experiment [1] is T1, MMP-2 (Homo sapiens, UniProt P08253).
T1 construct: purchased Calbiochem (EMD/MERCK Biosciences)
T1 sequence (P08253 110-660): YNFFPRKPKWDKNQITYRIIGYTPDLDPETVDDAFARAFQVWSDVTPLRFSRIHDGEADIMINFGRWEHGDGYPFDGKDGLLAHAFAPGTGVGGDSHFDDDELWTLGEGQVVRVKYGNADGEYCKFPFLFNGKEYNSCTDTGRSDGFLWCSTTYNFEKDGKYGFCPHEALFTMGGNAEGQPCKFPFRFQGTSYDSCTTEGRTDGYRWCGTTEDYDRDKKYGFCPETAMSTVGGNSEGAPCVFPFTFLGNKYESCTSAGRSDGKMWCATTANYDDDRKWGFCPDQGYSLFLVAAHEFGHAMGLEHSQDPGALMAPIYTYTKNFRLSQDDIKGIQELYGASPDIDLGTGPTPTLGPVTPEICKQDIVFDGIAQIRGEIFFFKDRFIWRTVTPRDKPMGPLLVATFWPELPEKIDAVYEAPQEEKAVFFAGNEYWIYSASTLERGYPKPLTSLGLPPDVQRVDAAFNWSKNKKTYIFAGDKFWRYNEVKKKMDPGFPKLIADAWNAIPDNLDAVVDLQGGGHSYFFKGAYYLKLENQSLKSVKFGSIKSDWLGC
To be noted: substrate MOCAc-Pro-Leu-Gly-Leu-A2Pr(DNP)-Ala-Arg-NH2, fluorescent intensity. How it is done:
(§1) Various human MMPs (MMP-2, MMP-9 and MMP-13) were purchased from Calbiochem (EMD/MERCK Biosciences).
(§2) The enzyme activity of MMPs was measured according to the method described in C. Graham Knight, Frances Willenbrock and Gillian Murphy: A novel coumarin-labelled peptide for sensitive continuous assays of the matrix metalloproteinases: FEBS LETT., 296, (1992), 263-266. As a substrate, MOCAc-Pro-Leu-Gly-Leu-A2Pr(DNP)- Ala-Arg-NH2 (Peptide Institute, Inc. Osaka, Japan) was used, and the following four assays are performed per compound (inhibitor) for measuring the inhibiting activity.
(§3) (A) Substrate (synthetic substrate), enzyme (MMPs), inhibitor
(§4) (B) Substrate (synthetic substrate), inhibitor
(§5) (C) Substrate (synthetic substrate), enzyme (MMPs)
(§6) (D) Substrate (synthetic substrate)
(§7) In each assay, the fluorescent intensity was measured, and inhibition (%) was calculated by the following equation.
(§8) Inhibition (%)=[I−(A−B)/(C−D)]×100
(§9) IC50 indicates a concentration at which inhibition (%) is 50%.

Experiment [2] deals with T2, MMP-9 (Homo sapiens, UniProt P14780).
T2 construct: purchased Calbiochem (EMD/MERCK Biosciences)
To be noted: substrate MOCAc-Pro-Leu-Gly-Leu-A2Pr(DNP)-Ala-Arg-NH2, fluorescent intensity. How it is done: as §1, §2, §3, §4, §5, §6, §7, §8, §9

Experiment [3] concerns the target T3, MMP-13 (Homo sapiens, UniProt P45452).
T3 construct: purchased Calbiochem (EMD/MERCK Biosciences)
To be noted: APMA-activated proenzyme; substrate MOCAc-Pro-Leu-Gly-Leu-A2Pr(DNP)-Ala-Arg-NH2, fluorescent intensity; read-out: IC50 MMP-13. The procedure, abridged:
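Pro-MMP-13 was activated with 1 mM APMA at 37° C for 2 h in 50 mM Tris-HCl pH 7.6, 0.3 M NaCl, 10 mM CaCl2, 0.005% Brij35. Activity was read by fluorescence using MOCAc-Pro-Leu-Gly-Leu-A2Pr(DNP)-Ala-Arg-NH2 substrate, with enzyme and inhibitor blank corrections. IC50 is the concentration giving 50% inhibition.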

T2 sequence (P14780 94-707): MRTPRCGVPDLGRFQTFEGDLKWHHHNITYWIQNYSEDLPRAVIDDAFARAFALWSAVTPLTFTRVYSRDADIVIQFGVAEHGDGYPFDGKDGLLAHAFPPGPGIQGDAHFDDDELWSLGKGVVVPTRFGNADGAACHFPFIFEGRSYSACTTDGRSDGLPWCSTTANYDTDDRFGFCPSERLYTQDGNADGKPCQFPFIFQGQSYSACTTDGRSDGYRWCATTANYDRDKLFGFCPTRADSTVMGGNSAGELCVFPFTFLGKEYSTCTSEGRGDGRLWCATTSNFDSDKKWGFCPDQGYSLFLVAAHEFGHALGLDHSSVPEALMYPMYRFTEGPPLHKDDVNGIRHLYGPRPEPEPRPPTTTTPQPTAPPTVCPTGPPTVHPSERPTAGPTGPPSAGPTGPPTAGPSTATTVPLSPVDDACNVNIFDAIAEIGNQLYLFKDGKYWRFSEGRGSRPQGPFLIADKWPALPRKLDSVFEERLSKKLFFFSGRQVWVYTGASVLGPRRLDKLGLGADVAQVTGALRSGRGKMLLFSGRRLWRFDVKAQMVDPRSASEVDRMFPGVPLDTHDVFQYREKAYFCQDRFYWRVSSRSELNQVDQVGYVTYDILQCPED

As to `CC(C)[C@@H](NS(=O)(=O)N1CCN(c2ccc(C#Cc3nc(-c4cccc(C(=O)NCC#N)c4)cs3)cc2)CC1)C(=O)O` [Compound V-40, (R)-2-[4-(4-{4-[3-(cyanomethylcarbamoyl)-phenyl]-thiazol-2-ylethynyl}-phenyl)-piperazine-1-sulfonylamino]-3-methylbutanoic acid], the half-maximal inhibitory concentration (IC50) is 1000 to 10000 nM in experiment [1], 1000 to 10000 nM in experiment [2] and 8 nM in experiment [3].

For the compound `CC(C)[C@@H](NS(=O)(=O)N1CCN(c2ccc(C#Cc3ccnc(C(=O)NCc4ccc(S(C)(=O)=O)cc4)c3)cc2)CC1)C(=O)O` [III-206, (R)-2-(4-{4-[2-(4-methanesulfonylbenzylcarbamoyl)-pyridin-4-ylethynyl]-phenyl}-piperazine-1-sulfonylamino)-3-methylbutanoic acid], the IC50 in experiment [1] was 100 to 1000 nM; in experiment [2] it was above 10000 nM; in experiment [3] it was 1 nM.

As for `CNC(=O)Cc1cnc(-c2cc(C#Cc3ccc(N4CCN(S(=O)(=O)N[C@@H](C(=O)O)C(C)C)CC4)cc3)ccc2OCCOC)o1` [Compound V-28, (R)-2-(4-{4-[4-(2-methoxyethoxy)-3-(5-methylcarbamoylmethyloxazol-2-yl)-phenylethynyl]-phenyl}-piperazine-1-sulfonylamino)-3-methylbutanoic acid], the IC50 was 1000 to 10000 nM in experiment [1], above 10000 nM in experiment [2] and 16 nM in experiment [3].

Take `COc1ccc(Cn2ccc3ccc(C#Cc4ccc(N5CCN(S(=O)(=O)N[C@H](C)C(=O)O)CC5)cc4)cc3c2=O)cc1` [Compound V-36, (R)-2-(4-{4-[2-(4-methoxybenzyl)-1-oxo-1,2-dihydroisoquinolin-7-ylethynyl]-phenyl}-piperazine-1-sulfonylamino)-proponic acid]: the IC50 was 1000 to 10000 nM in experiment [1], 1000 to 10000 nM in experiment [2] and 5 nM in experiment [3].

Take `CC(C)CO/N=C/c1c[nH]c2ccc(C#Cc3ccc(N4CCN(S(=O)(=O)N[C@H](C)C(=O)O)CC4)cc3)cc12` [Compound V-43, (R)-2-(4-{4-[3-((E)-isobutoxyiminomethyl)-1H-indol-5-ylethynyl]-phenyl}-piperazine-1-sulfonylamino)-proponic acid]: the figures for the IC50 in experiment [1], in experiment [2] and in experiment [3] were above 10000 nM, above 10000 nM and 19 nM, respectively.

Consider `CC(C)[C@@H](NS(=O)(=O)N1CCN(c2ccc(C#Cc3ccc4c(c3)c(=O)n(CC#N)c(=O)n4C)cc2)CC1)C(=O)O` [Compound V-68, (R)-2-{4-[4-(3-cyanomethyl-1-methyl-2,4-dioxo-1,2,3,4-tetrahydroquinazolin-6-ylethynyl)-phenyl]-piperazine-1-sulfonylamino}-3-methylbutanoic acid], for which the 50% inhibitory concentration (IC50) is 1000 to 10000 nM in experiment [1], 1000 to 10000 nM in experiment [2] and 5 nM in experiment [3].

Regarding `CC(C)[C@@H](NS(=O)(=O)N1CCN(c2ccc(C#Cc3ccnc(C(=O)NCc4cc(F)cc(F)c4)c3)cc2)CC1)C(=O)O` [III-192, (R)-2-(4-{4-[2-(3,5-difluorobenzylcarbamoyl)-pyridin-4-ylethynyl]-phenyl}-piperazine-1-sulfonylamino)-3-methylbutanoic acid], the values for the concentration for half-maximal inhibition (IC50) in experiment [1], in experiment [2] and in experiment [3] were 1000 to 10000 nM, above 10000 nM and 8 nM, respectively.

On to `CC(C)[C@@H](NS(=O)(=O)N1CCN(c2ccc(C#Cc3ccnc(C(=O)NCc4ccc5c(c4)OCO5)c3)cc2)CC1)C(=O)O` [III-199, (R)-2-[4-(4-{2-[(benzo[1,3]dioxol-5-ylmethyl)-carbamoyl]-pyridin-4-ylethynyl}-phenyl)-piperazine-1-sulfonylamino]-3-methylbutanoic acid], for which the IC50 in experiment [1] was 1000 to 10000 nM; in experiment [2], above 10000 nM; in experiment [3] it was 4 nM.

For `COc1ccc(CNC(=O)c2cc(C#Cc3ccc(N4CCN(S(=O)(=O)N[C@@H](C(=O)O)C(C)C)CC4)cc3)ccn2)cc1` [III-150, (R)-2-(4-{4-[2-(4-methoxybenzylcarbamoyl)-pyridin-4-ylethynyl]-phenyl}-piperazine-1-sulfonylamino)-3-methylbutanoic acid], the IC50 in experiment [1] was 1000 to 10000 nM; in experiment [2], above 10000 nM; in experiment [3], 7 nM.

`COc1ccc(C#Cc2ccc(N3CCN(S(=O)(=O)N[C@@H](C(=O)O)C(C)C)CC3)cc2)cc1C(=O)NCC#N` [III-94, (R)-2-(4-{4-[3-(cyanomethylcarbamoyl)-4-methoxyphenylethynyl]-phenyl}-piperazine-1-sulfonylamino)-3-methylbutanoic acid]: the half-inhibitory concentration (IC50) in experiment [1] is 1000 to 10000 nM; in experiment [2], 1000 to 10000 nM; in experiment [3], 9 nM.

Take `COCCOc1ccc(C#Cc2ccc(N3CCN(S(=O)(=O)N[C@H](C)C(=O)O)CC3)cc2)cc1-c1ncc(CC(=O)NCc2ccccc2)o1` [Compound V-19, (R)-2-(4-{4-[3-[5-(benzylcarbamoylmethyl)-oxazol-2-yl]-4-(2-methoxyethoxy)-phenylethynyl]-phenyl}-piperazine-1-sulfonylamino)-proponic acid]: the IC50 in experiment [1] was 1000 to 10000 nM; in experiment [2] it was above 10000 nM; in experiment [3] it was 8 nM.

In the case of `CC(=O)c1ccc(Cl)c2ccc(C#Cc3ccc(N4CCN(S(=O)(=O)N[C@H](C)C(=O)O)CC4)cc3)cc12` [III-10, (R)-2-{4-[4-(8-acetyl-5-chrolonaphthalen-2-ylethynyl)-phenyl]-piperazine-1-sulfonylamino}-proponic acid], the IC50 in experiment [1] was above 10000 nM; in experiment [2] it was above 10000 nM; in experiment [3], 13 nM.

On to `COc1ccc(Cn2ccc3ccc(C#Cc4ccc(N5CCN(S(=O)(=O)N[C@H](C(=O)O)C(C)C)CC5)cc4)cc3c2=O)cc1` [Compound V-37, (S)-2-(4-{4-[2-(4-methoxybenzyl)-1-oxo-1,2-dihydroisoquinolin-7-ylethynyl]-phenyl}-piperazine-1-sulfonylamino)-3-methylbutanoic acid], for which the IC50 was above 10000 nM in experiment [1], above 10000 nM in experiment [2] and 20 nM in experiment [3].

For the compound `CC(C)[C@@H](NS(=O)(=O)N1CCN(c2ccc(C#Cc3ccnc(C(=O)NCc4ccc(N5CCOCC5)cc4)c3)cc2)CC1)C(=O)O`, the IC50 in experiment [1] is 1000 to 10000 nM; in experiment [2] it was above 10000 nM; in experiment [3] it was 4 nM.

Consider “(S)-2-(4-{4-[(E)-2-(acetylnaphthalen-2-yl)-vinyl]-phenyl}-piperazine-1-sulfonylamino)-pentanoic acid [III-25]”, for which the concentration for half-maximal inhibition (IC50) is above 10000 nM in experiment [1], above 10000 nM in experiment [2] and 18 nM in experiment [3].

For `C[C@@H](NS(=O)(=O)N1CCN(c2ccc(C#Cc3ccc4c(c3)C(=O)N(Cc3ccccc3)CCN4)cc2)CC1)C(=O)O` [Compound V-51, (R)-2-{4-[4-(4-benzyl-5-oxo-2,3,4,5-tetrahydro-1H-benzo[e][1,4]diazepin-7-ylethynyl)-phenyl]-piperazine-1-sulfonylamino}-proponic acid], the IC50 in experiment [1] is 1000 to 10000 nM; in experiment [2] it was above 10000 nM; in experiment [3] it was 8 nM.

For the compound `CC(C)[C@@H](NS(=O)(=O)N1CCN(c2ccc(C#Cc3ccnc(C(=O)NCc4ccccc4)c3)cc2)CC1)C(=O)O` [III-177, (R)-2-{4-[4-(2-benzylcarbamoylpyridin-4-ylethynyl)-phenyl]-piperazine-1-sulfonylamino}-3-methylbutanoic acid], the IC50 in experiment [1] was 1000 to 10000 nM; in experiment [2] it was above 10000 nM; in experiment [3], 9 nM.

As for `CC(C)CCOc1ccc(C#Cc2ccc(N3CCN(S(=O)(=O)N[C@@H](C(=O)O)C(C)C)CC3)cc2)cc1C(=O)NCC#N` [III-99, (R)-2-(4-{4-[3-(cyanomethylcarbamoyl)-4-(3-methylbutoxy)phenylethynyl]-phenyl}-piperazine-1-sulfonylamino)-3-methylbutanoic acid], the results for the IC50 in experiment [1], in experiment [2] and in experiment [3] were 1000 to 10000 nM, above 10000 nM and 25 nM, respectively.

The values above are taken from patent US20100099676A1 (SHIONOGI & CO., LTD., priority 2006, published 2010).
